What was measured:
Assay type in all cases: biochemical
[1] = molecular target: T1, human p70S6 kinase (p70S6K, kinase domain residues 1-421, T412E mutation) (Homo sapiens, UniProt P23443, T412E); experiment: p70S6 kinase assay, Luciferase-Coupled Chemiluminescent Kinase assay (LCCA); conditions: 5 μM ATP, 12 nM p70S6K; read-out: p70S6K inhibition IC50
T1 construct: human p70S6 kinase domainresidues 1-421, containing a T412E mutation; made in house
Summary of the method: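 Baculovirus-expressed kinase domain (12 nM) reacted 2 h at ambient temperature with 5 μM ATP and 5 μM RRRLSSLRA peptide. Buffer was Tris pH 7.5 with MgCl2, MnCl2, DTT and Triton X-100. Remaining ATP was read by luciferase-luciferin chemiluminescence. IC50 came from 10-point dose-response with a four-parameter Hill fit.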

[2] = molecular target: T2, human Akt1 kinase (kinase domain residues R144-A480, activated with PDK1) (Homo sapiens, UniProt P31749); experiment: Akt1 kinase assay, Luciferase-Coupled Chemiluminescent Kinase assay (LCCA); conditions: 1 μM ATP, 1.3 nM Akt1; read-out: Akt-1 inhibition IC50
T2 construct: made in house
T2 sequence (P31749 144-480): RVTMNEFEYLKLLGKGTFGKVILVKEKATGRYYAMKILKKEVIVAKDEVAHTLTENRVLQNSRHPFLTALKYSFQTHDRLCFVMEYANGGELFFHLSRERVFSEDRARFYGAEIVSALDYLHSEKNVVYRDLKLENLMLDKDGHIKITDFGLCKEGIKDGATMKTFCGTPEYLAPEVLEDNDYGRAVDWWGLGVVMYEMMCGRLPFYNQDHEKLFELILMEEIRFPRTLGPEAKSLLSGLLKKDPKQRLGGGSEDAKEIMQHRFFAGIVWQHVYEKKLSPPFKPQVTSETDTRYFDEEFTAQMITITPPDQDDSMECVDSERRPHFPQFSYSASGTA
Summary of the method: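 Baculovirus-expressed PDK1-activated Akt1 kinase domain (R144-A480), 1.3 nM, with 5 μM crosstide and 1 μM ATP in Tris pH 7.5 with MgCl2/MnCl2, 3 h at ambient temperature. Remaining ATP read by luciferase-luciferin chemiluminescence; 10-point IC50 from four-parameter fit.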

[3] = molecular target: T3, human Akt2 kinase (kinase domain residues K146-R480) (Homo sapiens, UniProt P31751); experiment: Akt2 kinase assay, Luciferase-Coupled Chemiluminescent Kinase assay (LCCA); conditions: 2 μM ATP, 10 nM Akt2; read-out: Akt-2 inhibition IC50
T3 construct: human Akt2 kinase domain residues K146-R480; made in house
T3 sequence (P31751 146-480): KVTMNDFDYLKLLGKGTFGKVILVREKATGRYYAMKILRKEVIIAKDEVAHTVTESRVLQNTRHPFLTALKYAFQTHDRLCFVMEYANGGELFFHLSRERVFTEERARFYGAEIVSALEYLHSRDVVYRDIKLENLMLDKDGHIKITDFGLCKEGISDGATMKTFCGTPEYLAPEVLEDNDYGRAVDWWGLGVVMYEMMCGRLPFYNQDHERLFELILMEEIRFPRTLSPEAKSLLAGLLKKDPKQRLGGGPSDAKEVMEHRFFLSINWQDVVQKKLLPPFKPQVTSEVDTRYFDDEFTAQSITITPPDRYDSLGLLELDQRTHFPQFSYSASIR
Procedure: Kinase activity and compound inhibition are investigated using one or more of the three assay formats described below. The ATP concentrations for each assay are selected to be close to the Michaelis-Menten constant (KM) for each individual kinase. Dose-response experiments are performed at 10 different inhibitor concentrations in a 384-well plate format. The data are fitted to four-parameter equation (2) below; where Y is the observed signal, X is the inhibitor concentration, Min is the background signal in the absence of enzyme (0% enzyme activity), Max is the signal in the absence of inhibitor (100% enzyme activity), IC50 is the inhibitor concentration at 50% enzyme inhibition and H represents the empirical Hill's slope to measure the cooperativity. Typically H is close to unity. Y=Min+(Max−Min)/(1+(X/IC50)^H) Equation (2) p70S6 Kinase Assay
Biochemical activity of Akt2 kinase was assessed using a Luciferase-Coupled Chemiluminescent Kinase assay (LCCA) format. Kinase activity was measured as the percent ATP remaining following the kinase reaction. Remaining ATP was detected by luciferase-luciferin-coupled chemiluminescence. Specifically, the reaction was initiated by mixing test compounds, 2 μM ATP, 5 μM crosstide peptide and 10 nM Akt2 (baculovirus expressed human Akt2 kinase domain residues K146-R480) in a 20 uL assay buffer (20 mM Tris-HCL pH 7.5, 10 mM MgCl2, 0.03% Triton X-100, 1 mM DTT, 3 mM MnCl2). The mixture is incubated at ambient temperature for 2 hours after which 20 μL luciferase-luciferin mix is added and the chemiluminescent signal read using a Wallac Victor2 reader. The luciferase-luciferin mix consists of 50 mM HEPES, pH 7.8, 8.5 μg/mL oxalic acid (pH 7.8), 5 (or 50) mM DTT, 0.4% Triton X-100, 0.25 mg/mL coenzyme A, 63 uM AMP, 28 μg/mL luciferin and 40,000 units/mL luciferase.

T1 sequence (P23443 1-421 T412E): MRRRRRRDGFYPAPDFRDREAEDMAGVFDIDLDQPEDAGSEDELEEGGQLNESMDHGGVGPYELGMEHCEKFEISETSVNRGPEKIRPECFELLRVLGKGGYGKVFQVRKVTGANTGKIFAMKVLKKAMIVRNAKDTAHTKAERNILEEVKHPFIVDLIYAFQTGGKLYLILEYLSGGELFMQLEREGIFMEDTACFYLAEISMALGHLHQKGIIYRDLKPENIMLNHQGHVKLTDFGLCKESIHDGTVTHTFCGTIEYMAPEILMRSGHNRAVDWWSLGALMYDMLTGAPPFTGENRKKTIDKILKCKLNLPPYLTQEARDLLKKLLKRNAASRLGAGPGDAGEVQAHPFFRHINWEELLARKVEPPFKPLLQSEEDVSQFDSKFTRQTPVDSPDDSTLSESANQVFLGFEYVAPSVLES

| Structure (SMILES) | IC50 [1] [µM] | IC50 [2] [µM] | IC50 [3] [µM] |
| --- | --- | --- | --- |
| Brc1n[nH]c2ncnc(N3CCN(Cc4ncc[nH]4)CC3)c12 [Entry 52, 3-bromo-4-[4-(1H-imidazol-2-ylmethyl)piperazin-1-yl]-1H-pyrazolo[3,4-d]pyrimidine] | 0.05 to 0.5 | > 2 | > 2 |
| CC(c1ccccc1)N1CCN(c2ncnc3[nH]nc(Br)c23)CC1 (stereo not drawn) [Entry 57, 3-bromo-4-[4-(1-phenylethyl)piperazin-1-yl]-1H-pyrazolo[3,4-d]pyrimidine] | 0.05 to 0.5 | > 2 | > 2 |
| Brc1n[nH]c2ncnc(N3CCN(Cc4ccncc4)CC3)c12 [Entry 58, 3-bromo-4-[4-(pyridin-4-ylmethyl)piperazin-1-yl]-1H-pyrazolo[3,4-d]pyrimidine] | 0.05 to 0.5 | > 2 | > 2 |
| Brc1n[nH]c2ncnc(N3CCN(Cc4cccnc4)CC3)c12 [Entry 60, 3-bromo-4-[4-(pyridin-3-ylmethyl)piperazin-1-yl]-1H-pyrazolo[3,4-d]pyrimidine] | 0.05 to 0.5 | > 2 | > 2 |
| COc1ccc(CN2CCN(c3ncnc4[nH]nc(Br)c34)CC2)c(OC)c1OC [Entry 61, 3-bromo-4-(4-{[2,3,4-tris(methyloxy)phenyl]methyl}piperazin-1-yl)-1H-pyrazolo[3,4-d]pyrimidine] | 0.05 to 0.5 | > 2 | > 2 |
| O=C(c1ccco1)N1CCN(c2ncnc3[nH]nc(Br)c23)CC1 [Entry 66, 3-bromo-4-[4-(furan-2-ylcarbonyl)piperazin-1-yl]-1H-pyrazolo[3,4-d]pyrimidine] | 0.5 to 2 | > 2 | > 2 |
| O=C(c1ccc2cc[nH]c2c1)N1CCN(c2ncnc3[nH]nc(Br)c23)CC1 [Entry 67, 3-bromo-4-[4-(1H-indol-6-ylcarbonyl)piperazin-1-yl]-1H-pyrazolo[3,4-d]pyrimidine] | 0.5 to 2 | > 2 | > 2 |
| Brc1n[nH]c2ncnc(N3CCN(CCc4cccs4)CC3)c12 [Entry 68, 3-bromo-4-{4-[2-(2-thienyl)ethyl]piperazin-1-yl}-1H-pyrazolo[3,4-d]pyrimidine] | 0.5 to 2 | > 2 | > 2 |
| Brc1n[nH]c2ncnc(N3CCN(CCCN4CCCC4)CC3)c12 [Entry 69, 3-bromo-4-[4-(3-pyrrolidin-1-ylpropyl)piperazin-1-yl]-1H-pyrazolo[3,4-d]pyrimidine] | 0.5 to 2 | > 2 | > 2 |
| Brc1n[nH]c2ncnc(N3CCN(CC4CCCCC4)CC3)c12 [Entry 70, 3-bromo-4-[4-(cyclohexylmethyl)piperazin-1-yl]-1H-pyrazolo[3,4-d]pyrimidine] | 0.5 to 2 | > 2 | > 2 |
| CCC(C)N1CCN(c2ncnc3[nH]nc(Br)c23)CC1 (stereo not drawn) [Entry 72, 3-bromo-4-[4-(1-methylpropyl)piperazin-1-yl]-1H-pyrazolo[3,4-d]pyrimidine] | 0.5 to 2 | > 2 | > 2 |
| COc1cc(OC)nc(CN2CCN(c3ncnc4[nH]nc(Br)c34)CC2)n1 [Entry 73, 4-(4-{[4,6-bis(methyloxy)pyrimidin-2-yl]methyl}piperazin-1-yl)-3-bromo-1H-pyrazolo[3,4-d]pyrimidine] | 0.5 to 2 | > 2 | > 2 |
| COCCN1CCN(c2ncnc3[nH]nc(Br)c23)CC1 [Entry 74, 3-bromo-4-{4-[2-(methyloxy)ethyl]piperazin-1-yl}-1H-pyrazolo[3,4-d]pyrimidine] | 0.5 to 2 | > 2 | > 2 |
| O=C(CN1CCN(c2ncnc3[nH]nc(Br)c23)CC1)N1CCOCC1 [Entry 75, 3-bromo-4-[4-(2-morpholin-4-yl-2-oxoethyl)piperazin-1-yl]-1H-pyrazolo[3,4-d]pyrimidine] | > 2 | > 2 | > 2 |
| COCCCN1CCN(c2ncnc3[nH]nc(Br)c23)CC1 [Entry 76, 3-bromo-4-{4-[3-(methyloxy)propyl]piperazin-1-yl}-1H-pyrazolo[3,4-d]pyrimidine] | > 2 | > 2 | > 2 |
| COc1cc(OC)nc(C(c2ccccc2)N2CCN(c3ncnc4[nH]nc(Br)c34)CC2)n1 (stereo not drawn) [Entry 77, 4-{4-[[4,6-bis(methyloxy)pyrimidin-2-yl](phenyl)methyl]piperazin-1-yl}-3-bromo-1H-pyrazolo[3,4-d]pyrimidine] | > 2 | > 2 | > 2 |
| Brc1n[nH]c2ncnc(N3CCN(C4CCCCc5ccccc54)CC3)c12 (stereo not drawn) [Entry 78, 3-bromo-4-[4-(6,7,8,9-tetrahydro-5H-benzocyclohepten-5-yl)piperazin-1-yl]-1H-pyrazolo[3,4-d]pyrimidine] | > 2 | > 2 | > 2 |
| CN(C)C(=O)CN1CCN(c2ncnc3[nH]nc(Br)c23)CC1 [Entry 85, 2-[4-(3-bromo-1H-pyrazolo[3,4-d]pyrimidin-4-yl)piperazin-1-yl]-N,N-dimethylacetamide] | > 2 | > 2 | > 2 |

Now from value to molecule:

| IC50 [1] [µM] | IC50 [2] [µM] | IC50 [3] [µM] | Structure (SMILES) |
| --- | --- | --- | --- |
| 0.05 to 0.5 | > 2 | > 2 | Brc1n[nH]c2ncnc(N3CCN(Cc4cccc(Oc5ccccc5)c4)CC3)c12 [Entry 53, 3-bromo-4-(4-{[3-(phenyloxy)phenyl]methyl}piperazin-1-yl)-1H-pyrazolo[3,4-d]pyrimidine] |
| 0.05 to 0.5 | > 2 | > 2 | Cc1cccc(CN2CCN(c3ncnc4[nH]nc(Br)c34)CC2)c1 [Entry 54, 3-bromo-4-{4-[(3-methylphenyl)methyl]piperazin-1-yl}-1H-pyrazolo[3,4-d]pyrimidine] |
| 0.05 to 0.5 | > 2 | > 2 | N#Cc1cccc(CN2CCN(c3ncnc4[nH]nc(Br)c34)CC2)c1 [Entry 55, 3-{[4-(3-bromo-1H-pyrazolo[3,4-d]pyrimidin-4-yl)piperazin-1-yl]methyl}benzonitrile] |
| 0.05 to 0.5 | > 2 | > 2 | Fc1cccc(Cl)c1CN1CCN(c2ncnc3[nH]nc(Br)c23)CC1 [Entry 56, 3-bromo-4-{4-[(2-chloro-6-fluorophenyl)methyl]piperazin-1-yl}-1H-pyrazolo[3,4-d]pyrimidine] |
| 0.05 to 0.5 | > 2 | > 2 | Brc1n[nH]c2ncnc(N3CCN(Cc4cccc(OCc5ccccc5)c4)CC3)c12 [Entry 62, 3-bromo-4-[4-({3-[(phenylmethyl)oxy]phenyl}methyl)piperazin-1-yl]-1H-pyrazolo[3,4-d]pyrimidine] |
| 0.05 to 0.5 | > 2 | > 2 | Brc1n[nH]c2ncnc(N3CCN(Cc4cccc5ccccc45)CC3)c12 [Entry 63, 3-bromo-4-[4-(naphthalen-1-ylmethyl)piperazin-1-yl]-1H-pyrazolo[3,4-d]pyrimidine] |
| 0.5 to 2 | > 2 | > 2 | Clc1ccc(-c2ccc(CN3CCN(c4ncnc5[nH]nc(Br)c45)CC3)o2)cc1 [Entry 64, 3-bromo-4-(4-{[5-(4-chlorophenyl)furan-2-yl]methyl}piperazin-1-yl)-1H-pyrazolo[3,4-d]pyrimidine] |
| 0.5 to 2 | > 2 | > 2 | Clc1c2ccccc2c(CN2CCN(c3ncnc4[nH]nc(Br)c34)CC2)c2ccccc12 [Entry 71, 3-bromo-4-{4-[(10-chloroanthracen-9-yl)methyl]piperazin-1-yl}-1H-pyrazolo[3,4-d]pyrimidine] |
| > 2 | > 2 | > 2 | Brc1n[nH]c2ncnc(N3CCN(Cc4ccc(OCc5ccccc5)cc4)CC3)c12 [Entry 79, 3-bromo-4-[4-({4-[(phenylmethyl)oxy]phenyl}methyl)piperazin-1-yl]-1H-pyrazolo[3,4-d]pyrimidine] |
